Source: US20240041975A1, “ANTICANCER PEPTIDE AND USE THEREOF FOR INHIBITING CANCER CELL VIABILITY” (NATIONAL TSING HUA UNIVERSITY, priority 2022, published 2024)

Assays:
[1] = tested on: Human non-small cell lung cancer line A549; format: cell-based; conditions: for IC50: 24 h
Procedure: (§1) Human non-small cell lung cancer line A549, PC9, and H1975 (Osimertinib sensitive; Gefitinib toleran; belonged to T790M mutations), oral squamous cell carcinoma cell line OECM-1 were cultured in RPMI medium supplemented with 10% fetal bovine serum (FBS) and antibiotic. Human oral squamous cell carcinoma cell line C9 and human diploid fibroblast (HFW) were cultured in DMEM medium supplemented with 10% fetal bovine serum (FBS) and antibiotic. Cells were cultured in a humidified incubator containing 5% CO2 at 37° C.
(§2) The cytotoxicity of cancer cells via administrating the peptides were measured by the MTT assay. All cancer cell lines were seeded in a 96-well plate at a density of 5×10^4 cells per well and incubated for 24 hr. After the medium was removed, using the anti-cancer peptides ranged from 50 μM to 0.78 μM for treatment, diluted in the growth medium, and administered 24 hr. The media was then removed, determined cell viability by incubated for 3 hours at 37 C with the addition of 100 μL Thiazolyl Blue Tetrazolium Bromide (MTT 0.5 mg/ml in PBS; M2128, Sigma-Aldrich) diluted by ratio 1:9 in the growth medium. Next, the medium with MTT solution was removed, added 100 μl Dimethyl Sulfoxide (DMSO, D4540, Sigma-Aldrich) for dissolving the formazan crystal. Cell survival rate was calculated by measuring the absorbance at 570 nm using a microplate reader (Sunrise TM, TECAN, Switzerland). Medium without peptide and mixed with H2O2 represented positive and negative control, respectively. The experiments were repeated at least three times. Cell Viability percentage was calculated as follows: […]

[2] = tested on: Human non-small cell lung cancer line PC9; assay: MTT assay cytotoxicity, PC9; format: cell-based; conditions: 24 hr treatment, read-out: anticancer activity Human non-small cell lung cancer line PC9
Procedure: as §1, §2

[3] = tested on: Human non-small cell lung cancer line H1975; assay: MTT assay cytotoxicity, H1975; format: cell-based; conditions: 24 hr treatment, read-out: anticancer activity Human non-small cell lung cancer line H1975
Procedure: as §1, §2

[4] = tested on: oral squamous cell carcinoma cell line OECM-1; assay: MTT assay cytotoxicity, OECM-1; format: cell-based; conditions: 24 hr treatment, read-out: anticancer activity oral squamous cell carcinoma cell line OECM-1
Procedure: as §1, §2

[5] = tested on: Human oral squamous cell carcinoma cell line C9; assay: MTT assay cytotoxicity, C9; format: cell-based; conditions: for IC50: MTT, 24 hr treatment, read-out: anticancer activity oral squamous cell carcinoma cell line C9; for activity against oral squamous cell carcinoma cell line C9 (in words): FIG. 1E
Procedure: as §1, §2

[6] = MTT assay cell cytotoxicity, normal cell HFW; format: cell-based; conditions: human, human diploid fibroblast (HFW) cells, 24 hr treatment
Procedure: as §1, §2

A549 cell = assay: Killing kinetics (MTT time course); format: cell-based, human; conditions: 4×IC50 (6.452 μM) vs 2×IC50 (3.226 μM), within 240 minutes
Procedure: To evaluate the cytotoxic activity and time course against the A549 cell, two different concentrations of K1R12-AGP-RW 2×IC50 (3.226 μM), 4×IC50 (6.452 μM) were used. Cells were seeded as described as MTT assay, after 24 hours culture, cell were incubated with 2×IC50 and 4×IC50 peptide solution for 60 minutes, 120 minutes, 180 minutes, 240 minutes. Further incubated in 10% MTT solution for an additional 4 hours. Remove MTT solution and Dimethyl Sulfoxide (DMSO, D4540, Sigma-Aldrich) was added to formazan crystal solubilization. Using a microplate reader (Sunrise TM, TECAN, Switzerland) detecting the absorbance at 570 nm. The experiments were repeated three times independently.

[7] = tested on: Human non-small cell lung cancer cell A549; assay: HMGB1 secretion by western blot; format: cell-based; conditions: 4×IC50 (6.452 μM)
Procedure: FIG. 3 depict that the release level of HMGB1 was analyzed by Western Blot. Human non-small cell lung cancer cell A549 administrated with 6.452 μM (4×IC50) of K1R12-AGP-RW for different time period (60 min, 120 min, 240 min), the HMGB1 release form lysate (L) to the supernatant (S). A549 treated with medium without serum as control group.
In one embodiment, cancer cells were seeded with 5×10^5 cells/well in 6-cm polystyrene in complete medium and allowed to adhere 24 hr. Cells were treated with K1R12-AGP-IR, K1R12-AGP-RW, K1R12-AGP-RI at 4×IC50 dilution in medium without serum and incubated at 37° C. for different time points (60 min,120 min,240 min). RPMI medium without peptide treated for 24 hr which was used as a negative control. Supernatants (S) were collected and centrifuged at 1,500 rcf for 5 minutes. Cell lysates (L) use 500 μL Trypsin-EDTA harvested after centrifuged at 750 g for 5 minutes and washing lysate twice with PBS. And addition 150 μL RIPA and protease inhibitor blended buffer, then centrifugation same condition with supernatant(S). Sonication with 5 cycle number, time on or off 30 sec, and centrifugation for 10 minutes, 1400 g at 4° C., thereafter lysed using a 6× Sample buffer, 0.1M DTT (Sigma), and water. Protein concentrations of cell extracts were determined by Bradford reagent. Both supernatants and lysate were boiled in 80° C. 10 minutes and resolved by 12% sodium dodecyl sulfate-polyacrylamide gel electrophoresis (SDS-PAGE), and then electro transferred to a polyvinylidene difluoride (PVDF) membrane (Millipore). The membrane was blocked in 5% skimmed milk and incubated with the HMGB1 antibody (rabbit, polyclonal, Abcam ab 18256). The membrane was then rinsed several times with TB ST, incubated with horseradish peroxidase (HRP)-conjugated secondary antibody (Abcam ab6721). The signals were visualized by enhanced chemiluminescence (ECL) and recorded by a detected system (Image Quant LAS 4000mini).

[8] = tested on: Human non-small cell lung cancer cell A549; assay: ATP release (ENLITEN ATP assay kit, luciferin-luciferase); format: cell-based; conditions: 4×IC50 (6.452 μM)
Procedure: FIG. 4 depict that Detection ATP release into supernatant was detect after adminstrated with K1R12-AGP-RW. Human non-small cell lung cancer cell A549 administrated with 6.452 μM (4×IC50) of K1R12-AGP-RW for different time period (30 min, 60 min, 90 min, 120 min). Data are presented as means ±SEM, ***p<0.005, **p<0.01, versus the control group. Data of FIG. 4 were analyzed using the one-way ANOVA and multiple comparison test.
The ENLITEN ATP assay kit (Promega, Madison, WI, FF2000) was used for the detection of ATP release levels. Above all seeds, cancer cells in 96 well with 1×10^5 cell per well, incubated 24 hours. On day 2, replace the medium with the fresh medium containing 4×IC50 K1R12-AGP-RW incubated at different time points (30 min, 60 min, 90 min, 120 min). The supernatant was college and centrifuged 500 xg for 10 minutes to remove debris. Add reconstituted rL/L reagent with the sample and detection immediately, expressed as relative light units (RLU). Serially diluted ATP standard to calculating ATP concentrations generates a regression curve. All reagents in this kit must be returned to room temperature before use.

[9] = tested on: Human non-small cell lung cancer cell A549; assay: Extracellular cytochrome c release (ELISA); format: cell-based; conditions: 4×IC50 (6.452 μM)
Procedure: FIG. 5 depict that release of mitochondria DAMPs Cytochrome c was detected by Elisa kit. Human non-small cell lung cancer cell A549 administrated with 6.452 μM (4×IC50) of K1R12-AGP-RW for different time period (30 min, 60 min, 90 min, 120 min, […]). Data are presented as means ±SEM, ***p<0.005, **p<0.01, versus the control group.
The ELISA kit for detection of cytochrome c was obtained from the R&D System (Minneapolis, MN, USA). Before the experiment, prepare a buffer solution or reagent from the kit. Seed cancer cells 1×10^5 in 96 well incubated 24 hours. After 24 hours, substitute with 4×IC50 K1R12-AGP-RW dilutions in medium, and incubate designated time points (30 min, 60 min, 90 min, 120 min). Following the supernatant was centrifuged at 16000 xg for 10 minutes. Add 50 μL supernatant and 75 μL of cytochrome c conjugate to each well. Then, add 50 μL of standard, control, or sample per well. Mix by tapping the plate frame for 1 minute. Cover with the adhesive strip provided. Incubate for 2 hours at room temperature. A plate layout is provided to record standards and samples assayed. Then use the wash buffer washed 5 times with 400 μL. The last wash removes any remaining Wash Buffer by decanting. […] Detection the cytochrome c at absorbance 450 nm using a microplate reader (Sunrise TM, TECAN, Switzerland).

[10] = tested on: Human non-small cell lung cancer cell A549; assay: ROS release (DCFDA assay); format: cell-based; conditions: 4×IC50 (6.452 μM); 120 minutes
Procedure: FIG. 6 depict that release of ROS from cancer cells were administrated with the peptide. Human non-small cell lung cancer cell A549 administrated with 6.452 μM (4×IC50) of K1R12-AGP-RW for 120 min. The cells of control group were treated with RPMI-1640 without phenol red. Data are presented as means ±SEM, **p<0.05, versus the control group. Data of FIG. 6 were analyzed by Student's t-test.
The 2′,7′-dichlorofluorescin diacetate (DCFDA) intracellular ROS detection assay kit from Abcam (UK, ab113851) was used for measuring ROS release. Cells were seeded in a 96 well black clear bottom plate with 4×10^4 per well, culture 24 hours. Remove medium and washed once in pre-warm 1× PBS with 100 μl per well. Furthermore, cells were treated with 25 μM DCFDA in 1× buffer solution incubated for 120 minutes. Washed again with a buffer solution of 100 μL/well, before adding the 4×IC50 K1R12-AGP-RW dissolved in RPMI without phenol red, and incubated 60,120 and 240 minutes. Cells incubated with RPMI without phenol red were used as a negative control, and the positive control was tertbutyl hydroperoxide (TBHP). Using a fluorescence plate reader (VICTOR3, PerkinElmer, USA) determined at an excitation wavelength of 485 nm and an emission wavelength of 535 nm.

[11] = tested on: human lung cancer cell/cell line and oral squamous cell carcinoma cell/cell line; assay: MTT assay, overall anticancer spectrum; format: cell-based; conditions: for efficiency to the human lung cancer cell line: human lung cancer cell lines, FIG. 1A-1C
Procedure: as §1, §2

| Substance | IC50 [1] [µM] | inhibition of A549 compared with the other cancer cells ([1]; MTT) | IC50 [2] [µM] | IC50 [3] [µM] | IC50 [4] [µM] | IC50 [5] [µM] | IC50 at 24 h [6] [µM] | killing kinetics, 4×IC50 versus 2×IC50 (A549 cell) | HMGB1 in cell lysate (L) ([7]; 60, 120, 240 minutes, time-dependent) | HMGB1 in supernatant (S) ([7]; after 120 minutes) | HMGB1 in supernatant (S) ([7]; after 240 minutes) | ATP secretion ([8]; after 30 minutes, with time increased) | ATP secretion ([8]; within 30 minutes) | cytochrome c release ([9]; 120 minutes) | cytochrome c release versus untreated cell ([9]; 240 minutes) | ROS release versus untreated cell [10] | activity against oral squamous cell carcinoma cell line C9 (in words) [5] | efficiency to the human lung cancer cell line [11] | anticancer activity spectrum ([11]; human lung cancer and oral squamous cell carcinoma cell lines, MTT) |
| --- | --- | --- | --- | --- | --- | --- | --- | --- | --- | --- | --- | --- | --- | --- | --- | --- | --- | --- | --- |
| Ac-KRIVQRIKDFLRAGPRRWWRW-NH2 [SEQ ID NO: 6, Ac-KRIVQRIKDFLR-AGP-RRWWRW-NH2] | 1.61 | more effective | 5.42 | 10.9 | 4.56 | 4.41 | 11.1 | more rapid kill cancer cells | reduce | slight increase | complete release into the supernatant(S) | reduced | higher level | release at a certain level and keep stabilize | significant increase | significant increase |  |  |  |
| Ac-KRIVQRIKDFLRAGPRRLVRI-NH2 [SEQ ID NO: 7, Ac-KRIVQRIKDFLR-AGP-RRLVRI-NH2] | 3.86 |  | 16.8 | 13.7 | 11.2 | 30.4 | 10.4 |  |  |  |  |  |  |  |  |  | weak | good efficiency |  |
| Ac-KRIVQRIKDFLRAGPIKDFLR-NH2 [SEQ ID NO: 5, Ac-KRIVQRIKDFLR-AGP-IKDFLR-NH2] | 6.26 |  | 10.5 | 11.9 | 11.5 | 25.3 | 13.5 |  |  |  |  |  |  |  |  |  | weak | good efficiency | broad-spectrum anticancer activity |
